Test results reported in ChEMBL document CHEMBL3272229, “Molecular properties of the adrenergic alpha receptor. 2. Optimum covalent inhibition by two different prototypes of polyamine disulfides” (J Med Chem, 1978).
The source made the active and inactive calls. No cut-off for these calls is given here.

What was measured:
[1] = biological target: T1, Adrenergic receptor alpha (Rattus norvegicus) (UniProt P15823+P23944+P43140+P22086+P19328+P22909); assay: Irreversible inhibition of alpha adrenergic receptor in rat vas deferens assessed as inhibition of NE-induced contractions at 2 x 10' -5 M after 30 mins relative to [N,N'-bis(o-methoxybenzylamino-n-hexyl)cystamine; format: tissue-based
[2] = biological target: T1, Adrenergic receptor alpha (Rattus norvegicus); assay: Irreversible inhibition of alpha adrenergic receptor in rat vas deferens assessed as inhibition of NE-induced contractions at 2 x 10' -5 M after 30 mins relative to N1,N1'-(2,2'-disulfanediylbis(ethane-2,1-diyl))dioctane-1,8-diamine tetrahydrochloride; format: tissue-based
Cavia porcellus [3] = species: Cavia porcellus; assay: Effect on muscarinic receptor in guinea pig atrium assessed as reduction in carbachol-mediated ionotropic/chronotropic potency at 10 uM after 17 mins; format: tissue-based; conditions: Cardiac atrium
Cavia porcellus [4] = species: Cavia porcellus; assay: Effect on muscarinic receptor in guinea pig atrium assessed as reduction in carbachol-mediated ionotropic/chronotropic potency at 0.17 uM after 30 to 60 mins; format: tissue-based; set-up: scale not given: the % may be the effect or the level left; conditions: Cardiac atrium
Cavia porcellus [5] = species: Cavia porcellus; assay: Antagonist activity at alpha adrenergic receptor in guinea pig atrium assessed as reduction in tyramine-mediated ionotropic/chronotropic potency at 10 to 30 uM; format: tissue-based; conditions: Cardiac atrium
Cavia porcellus [6] = species: Cavia porcellus; assay: Effect on muscarinic acetylcholine receptor in guinea pig ileum assessed as reduction in acetylcholine-induced contractile response treated at 30 uM for 40 mins measured after 20 mins post washout; format: tissue-based
Oryctolagus cuniculus [7] = species: Oryctolagus cuniculus; assay: Effect on 5-HT receptor in potassium-contracted rabbit aortic strip assessed as change in 5-HT-mediated response at 10 uM after 30 mins
Oryctolagus cuniculus [8] = species: Oryctolagus cuniculus; assay: Effect on histamine receptor in potassium-contracted rabbit aortic strip assessed as change in histamine-mediated response at 10 uM after 30 mins
Oryctolagus cuniculus [9] = species: Oryctolagus cuniculus; assay: Irreversible inhibition of alpha adrenergic receptor in rabbit aortic strip assessed as inhibition of NE-induced contractions at 1 to 3 uM after 18 hrs
Cavia porcellus [10] = species: Cavia porcellus; assay: Effect on muscarinic receptor in guinea pig atrium assessed as reduction in carbachol-mediated ionotropic/chronotropic potency at 30 uM after 26 mins; format: tissue-based; conditions: Cardiac atrium
Oryctolagus cuniculus [11] = species: Oryctolagus cuniculus; assay: Irreversible inhibition of alpha adrenergic receptor in rabbit aortic strip assessed as inhibition of NE-induced contractions at 0.3 uM after 90 mins
Cavia porcellus [12] = species: Cavia porcellus; assay: Potentiation of NE-mediated alpha adrenergic receptor activity in guinea pig atrium at 10 to 30 uM; format: tissue-based; conditions: Cardiac atrium
Cavia porcellus [13] = species: Cavia porcellus; assay: Effect on muscarinic receptor in guinea pig atrium assessed as reduction in carbachol-mediated ionotropic/chronotropic potency at 0.24 uM after 30 to 60 mins; format: tissue-based; set-up: scale not given: the % may be the effect or the level left; conditions: Cardiac atrium
Cavia porcellus [14] = species: Cavia porcellus; assay: Antagonist activity at alpha adrenergic receptor in guinea pig atrium assessed as inhibition of 30 uM NE-induced contractions treated at 3 uM for 30 mins followed by washout; format: tissue-based; conditions: Cardiac atrium
Cavia porcellus [15] = species: Cavia porcellus; assay: Antagonist activity at muscarinic receptor in guinea pig atrium assessed as reduction in butyrylcholine-induced response at 10 to 30 uM; format: tissue-based; conditions: Cardiac atrium
Cavia porcellus [16] = species: Cavia porcellus; assay: Effect on muscarinic acetylcholine receptor in guinea pig ileum assessed as reduction in acetylcholine-induced contractile response at 7 uM after 20 to 40 mins; format: tissue-based; set-up: scale not given: the % may be the effect or the level left
Oryctolagus cuniculus [17] = species: Oryctolagus cuniculus; assay: Effect on beta adrenergic receptor in potassium-contracted rabbit aortic strip assessed as change in isoprenaline-mediated response at 10 uM after 30 mins
Cavia porcellus [18] = species: Cavia porcellus; assay: Antagonist activity at alpha adrenergic receptor in guinea pig atrium assessed as reduction in tyramine-mediated ionotropic/chronotropic potency; format: tissue-based; conditions: Cardiac atrium
Cavia porcellus [19] = species: Cavia porcellus; assay: Antagonist activity at alpha adrenergic receptor in guinea pig atrium assessed as inhibition of 300 uM NE-induced contractions treated at 0.147 uM; format: tissue-based; conditions: Cardiac atrium
Cavia porcellus [20] = species: Cavia porcellus; assay: Antagonist activity at muscarinic receptor in guinea pig atrium assessed as reduction in butyrylcholine-induced response; format: tissue-based; conditions: Cardiac atrium
Cavia porcellus [21] = species: Cavia porcellus; assay: Potentiation of NE-mediated alpha adrenergic receptor activity in guinea pig atrium; format: tissue-based; conditions: Cardiac atrium
Cavia porcellus [22] = species: Cavia porcellus; assay: Antagonist activity at alpha adrenergic receptor in guinea pig atrium assessed as inhibition of 30 uM NE-induced contractions treated at 0.147 uM; format: tissue-based; conditions: Cardiac atrium
[23] = biological target: T1, Adrenergic receptor alpha (Rattus norvegicus); assay: Irreversible inhibition of alpha adrenergic receptor in rat vas deferens assessed as inhibition of NE-induced contractions at <20 uM after 30 mins; format: tissue-based

SMILES | inhibition [1] | inhibition [2] | also measured
COc1cccc(CNCCCCCCNCCSSCCNCCCCCCNCc2cccc(OC)c2)c1 | 72% | 72% | 
COc1ccc(OC)c(CNCCCCCCNCCSSCCNCCCCCCNCc2cc(OC)ccc2OC)c1 | 76% | 76% | 
COc1cc(CNCCCCCCNCCSSCCNCCCCCCNCc2cc(OC)cc(OC)c2)cc(OC)c1 | 41% | 41% | 
COc1ccccc1CNCCCCCCCNCCSSCCNCCCCCCCNCc1ccccc1OC | 71% | 71% | 
Cc1ccccc1CNCCCCCCCNCCSSCCNCCCCCCCNCc1ccccc1C | 56% | 56% | 
NCCCCCNCCSSCCNCCCCCN | 10% | 10% | 
NCCCCCCCCCNCCSSCCNCCCCCCCCCN | 92% | 92% | 
c1ccc(CNCCCCCCCNCCSSCCNCCCCCCCNCc2ccccc2)cc1 | 58% | 58% | 
COc1ccc(CNCCCCCCNCCSSCCNCCCCCCNCc2ccc(OC)cc2)cc1 | 81% | 81% | 
CCOc1ccccc1CNCCCCCCNCCSSCCNCCCCCCNCc1ccccc1OCC | 81% | 81% | 
COc1cccc(CNCCCCCCNCCSSCCNCCCCCCNCc2cccc(OC)c2OC)c1OC | 26% | 26% | 
Clc1cccc(Cl)c1CNCCCCCCCNCCSSCCNCCCCCCCNCc1c(Cl)cccc1Cl | 39% | 39% | 
COc1ccccc1CNCCCCCCN(C)CCSSCCN(C)CCCCCCNCc1ccccc1OC | 48% | 48% | 
NCCCCCCCCCCNCCSSCCNCCCCCCCCCCN | 56% | 56% | 
Cc1ccccc1CNCCCCCCNCCSSCCNCCCCCCNCc1ccccc1C | 69% | 69% | 
NCCCCCCCNCCSSCCNCCCCCCCN | 63% | 63% | 
Oc1ccc(CNCCCCCCNCCSSCCNCCCCCCNCc2ccc(O)c(O)c2)cc1O | 98% | 98% | 

SMILES | inhibition [1] | inhibition [2] | also measured
COc1ccccc1CNCCCCCNCCSSCCNCCCCCNCc1ccccc1OC | 59% | 59% | 
COc1ccccc1CNCCCCCCNCCCCCCNCCCCCCNCc1ccccc1OC |  |  | Activity (Cavia porcellus [3]): inactive; Activity (Cavia porcellus [4]): 50%
Clc1cccc(Cl)c1CNCCCCCCNCCSSCCNCCCCCCNCc1c(Cl)cccc1Cl | 40% | 40% | 
c1ccc(CNCCCCCCNCCSSCCNCCCCCCNCc2ccccc2)cc1 | 90% | 90% | 
Clc1ccccc1CNCCCCCCCNCCSSCCNCCCCCCCNCc1ccccc1Cl | 36% | 36% | 
NCCCCCCNCCSSCCNCCCCCCN | 27% | 27% | 
COc1ccc(CNCCCCCCNCCSSCCNCCCCCCNCc2ccc(OC)c(OC)c2)cc1OC | 24% | 24% | 
Clc1ccccc1CNCCCCCCNCCSSCCNCCCCCCNCc1ccccc1Cl | 44% | 44% | 
COc1ccc(CNCCCCCCNCCSSCCNCCCCCCNCc2ccc(OC)cc2OC)c(OC)c1 | 26% | 26% | 
COc1ccccc1CNCCCCCCNCCSSCCNCCCCCCNCc1ccccc1OC |  | 100% | inhibition (Cavia porcellus [5]): inactive; Activity (Cavia porcellus [6]): inactive; Activity (Oryctolagus cuniculus [7]): inactive; Activity (Oryctolagus cuniculus [8]): inactive; inhibition (Oryctolagus cuniculus [9]): Active; Activity (Cavia porcellus [10]): inactive; inhibition (Oryctolagus cuniculus [11]): Active; Activity (Cavia porcellus [12]): inactive; Activity (Cavia porcellus [13]): 50%; inhibition (Cavia porcellus [14]): inactive; inhibition (Cavia porcellus [15]): inactive; Activity (Cavia porcellus [16]): 50%; Activity (Oryctolagus cuniculus [17]): inactive
CC(COc1ccccc1)N(CCCl)Cc1ccccc1 (stereo not drawn) |  |  | inhibition (Cavia porcellus [18]): Active; inhibition (Cavia porcellus [19]): Active; inhibition (Cavia porcellus [20]): Active; Activity (Cavia porcellus [21]): Active; inhibition (Cavia porcellus [22]): Active
Cc1ccccc1CNCCCCCCCCNCCSSCCNCCCCCCCCNCc1ccccc1C | 49% | 49% | 
NCCCCCCCCNCCSSCCNCCCCCCCCN | 100% |  | inhibition [23]: Active
NCCCCCCCCCCCCNCCSSCCNCCCCCCCCCCCCN | 24% | 24% | 
CN(CCCCCCCCN)CCSSCCN(C)CCCCCCCCN | 90% | 90% | 
C=CCOc1ccccc1CNCCCCCCNCCSSCCNCCCCCCNCc1ccccc1OCC=C | 71% | 71% | 
COc1ccccc1CNCCCCCCCCNCCSSCCNCCCCCCCCNCc1ccccc1OC | 41% | 41% | 
